From paper PMC11855086, “Synthesis, Antimicrobial Activity, and Tyrosinase Inhibition by Multifunctional 3,4-Dihydroxy-Phenyl Peptidomimetics” (International Journal of Molecular Sciences, 2025)
In brackets after ≈: the same amount, converted by molar mass.

How the values were obtained:
[1] = test system: S. aureus (ATCC 23235); assay: microbe, parasite or virus in culture; format: cell-based; settings: Staphylococcus aureus; for MBC: ATCC23235; for MIC: ATCC23235, 24 h
[2] = test system: E. cloacae (ATCC 49141); assay: MIC and MBC, microtiter plate technique; format: cell-based; settings: ATCC49141, Enterobacter cloacae; for MIC: 24 h, resazurin; for MBC: TTC
[3] = test system: E. coli K12 (ATCC 25404); assay: MIC and MBC, microtiter plate technique; format: cell-based; settings: Escherichia coli; for MBC: ATCC25404; for MIC: ATCC25404, 24 h
[4] = test system: E. coli R4 (ATCC 39543); assay: MIC and MBC, microtiter plate technique; format: cell-based; settings: Escherichia coli; for MBC: ATCC39543; for MIC: ATCC39543, 24 h
[5] = test system: P. aeruginosa (ATCC 15442); assay: MIC and MBC, microtiter plate technique; format: cell-based; settings: ATCC15442, Pseudomonas aeruginosa; for MIC: 24 h, resazurin; for MBC: TTC
[6] = test system: E. coli R2 (ATCC 39544); assay: MIC and MBC, microtiter plate technique; format: cell-based; settings: Escherichia coli; for MBC: ATCC39544; for MIC: ATCC39544, 24 h
[7] = target: T1, mushroom tyrosinase (mTYR) (Agaricus bisporus, UniProt C7FF04); assay: Tyrosinase assay with L-DOPA as substrate (absorbance at 475 nm); format: biochemical; settings: 100 µM compound
T1 construct: purchased Sigma-Aldrich (Poznan, Poland); host or cells: Agaricus bisporus (extracted natural enzyme)
T1 sequence (C7FF04 1-392 limits assumed): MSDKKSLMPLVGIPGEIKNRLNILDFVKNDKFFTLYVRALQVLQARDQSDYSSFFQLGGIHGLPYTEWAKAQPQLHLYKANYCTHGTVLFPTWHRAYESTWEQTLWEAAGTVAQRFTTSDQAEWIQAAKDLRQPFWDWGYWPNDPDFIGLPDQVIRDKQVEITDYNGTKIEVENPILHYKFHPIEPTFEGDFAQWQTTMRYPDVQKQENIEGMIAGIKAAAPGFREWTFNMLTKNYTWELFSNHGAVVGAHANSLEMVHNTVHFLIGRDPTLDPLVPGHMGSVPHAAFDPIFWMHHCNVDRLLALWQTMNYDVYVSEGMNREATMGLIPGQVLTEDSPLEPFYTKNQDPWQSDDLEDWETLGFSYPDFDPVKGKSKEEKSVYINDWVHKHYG
From the text: Tyrosinase (Tyr) extracted from Agaricus bisporus (mushroom tyrosinase, mTYR) is commonly used as a model enzyme for human Tyr due to its high purity, stability, and commercial availability. It is frequently used in the selection of TYR inhibitors. Following established literature protocols, L-tyrosine and L-DOPA, which serve as substrates for monophenol and diphenol oxidation, respectively, were used to assess the tyrosinase inhibitory activity of synthesized target compounds [21].
Tyrosinase (Tyr) activity was measured using L-DOPA as substrate and phosphate buffer solution (PBS) as blank control, following the method described by Min He et al. (2022) with an ultraviolet spectrophotometer (Carry-300, Agilent Life Sciences and Chemical Analysis, Santa Clara, CA, USA). […] Before the experiment, 2.9 mL of PBS and 0.1 mL of DMSO were used to account for the influence of the background solvent. The inhibitor solution (100 µL), substrate solution (2.8 mL), and Tyr solution (100 µL) were then added to a quartz colorimetric cuvette. After a one-minute mixing period, the absorption spectra of the mixture were continuously recorded at 475 nm using the UV spectrophotometer (Carry-300) for 5 min over a period of every 30 s. The tyrosinase inhibition rate was calculated as follows:Relative enzyme activity (%) = (A1 − A2)/A1 × 100
A1 = Absorbance of L-DOPA and inhibitor.
A2 = Absorbance of L-DOPA, inhibitor, and tyrosinase.

[8] = test system: E. coli R3 (ATCC 11775); assay: MIC and MBC, microtiter plate technique; format: cell-based; settings: Escherichia coli; for MIC: ATCC11775, 24 h, resazurin; for MBC: ATCC11775, TTC
[9] = test system: A. baumannii (ATCC 17978); assay: MIC and MBC, microtiter plate technique; format: cell-based; settings: ATCC17978, Acinetobacter baumannii; for MIC: 24 h, resazurin; for MBC: TTC
[10] = MTT cytotoxicity assay; format: cell-based; settings: mouse, BALB/c3T3 mouse embryonic fibroblast cells; 1.0 µM, 24 h; read-out: cell viability
Experimental: Following the completion of MIC and MBC assays on the analyzed bacterial strains, and subsequent treatment with Fpg protein modified by peptidomimetics along with selected antibiotics, a further MTT assay was conducted to evaluate the cytotoxicity of the compounds employing the BALB/c3T3 mouse embryonic fibroblast cell line (Figure 10).
BALB/c3T3 mouse embryonic fibroblast cells were exposed to peptidomimetics across concentrations ranging from 0.5 µM to 3.5 µM and incubated for a duration of 24 h. […] The highest concentrations (2.5 µM and 3.5 µM) inhibited cell viability, which was reduced to 20.2% and 1.0%, respectively (Figure 10 and Figure S40 in the Supplementary Materials).
The cytotoxic effects of aldehyde 1 and peptidomimetics 5a–r on BALB/c3T3 mouse fibroblast cells were assessed utilizing the MTT assay following a 24 h incubation period across five different concentrations (0.5, 1.0, 1.5, 2.5, and 3.5 µM). The MTT assay is predicated upon the capacity of mitochondrial dehydrogenase enzymes to convert the water-soluble tetrazolium salt, 3-([…])-2,5-diphenyltetrazolium bromide (MTT), into an insoluble formazan product, manifesting as dark blue crystals. These formazan crystals are then dissolved in DMSO or isopropanol, forming a colored solution whose intensity is measured spectrophotometrically within the wavelength range of 492–570 nm. The amount of MTT reduced corresponds to the oxidative activity of the mitochondria, which is directly proportional to the number of metabolically active cells in the population under defined experimental conditions. The MTT assay can also be used to assess cell viability in non-dividing metabolically active cells. It is one of the most widely used methods to assess cytotoxic activity and is recommended by international standards organizations as a reference method.

| Compound | MBC [1] | MIC [1] | MIC [2] | MBC [2] | MBC [3] | MIC [3] | MBC [4] | MIC [4] | MIC [5] | MBC [5] | MBC [6] | MIC [6] | inhibition at 100 µM [7] | MIC [8] | MBC [8] | MIC [9] | MBC [9] | viability at 24 h, 1 µM [10] |
| --- | --- | --- | --- | --- | --- | --- | --- | --- | --- | --- | --- | --- | --- | --- | --- | --- | --- | --- |
| CC(=O)N(C1CCCCC1)C(C(=O)NCc1ccc(F)cc1)c1ccc(O)c(O)c1 (stereo not drawn) [Compound 5o, 2-(N-cyclohexylacetamido)-2-(3,4-dihydroxyphenyl)-N-(4-fluorobenzyl)acetamide] | 0.81 µM (≈ 0.336 µg/mL) | 0.74 µM (≈ 0.307 µg/mL) | 0.8 µM (≈ 0.332 µg/mL) | 0.84 µM (≈ 0.348 µg/mL) | 0.86 µM (≈ 0.356 µg/mL) | 0.3 µM (≈ 0.124 µg/mL) | 1.47 µM (≈ 0.609 µg/mL) | 1.52 µM (≈ 0.63 µg/mL) | 0.73 µM (≈ 0.303 µg/mL) | 0.86 µM (≈ 0.356 µg/mL) | 1.23 µM (≈ 0.51 µg/mL) | 0.79 µM (≈ 0.327 µg/mL) | > 10% | 1.01 µM (≈ 0.419 µg/mL) | 1.45 µM (≈ 0.601 µg/mL) | 0.75 µM (≈ 0.311 µg/mL) | 0.81 µM (≈ 0.336 µg/mL) |  |
| COc1ccc(CN(C(=O)Cc2ccccc2)C(C(=O)NCc2ccc(F)cc2)c2ccc(O)c(O)c2)cc1 (stereo not drawn) [Compound 5c, 2-(3,4-dihydroxyphenyl)-N-(4-fluorobenzyl)-2-(N-(4-methoxybenzyl)-2-phenylacetamido)-acetamide] | 1 µM (≈ 0.529 µg/mL) | 0.96 µM (≈ 0.507 µg/mL) | 1.08 µM (≈ 0.571 µg/mL) | 1.11 µM (≈ 0.587 µg/mL) | 0.66 µM (≈ 0.349 µg/mL) | 0.45 µM (≈ 0.238 µg/mL) | 2.36 µM (≈ 1.25 µg/mL) | 1.98 µM (≈ 1.05 µg/mL) | 1.04 µM (≈ 0.55 µg/mL) | 1.09 µM (≈ 0.576 µg/mL) | 1.04 µM (≈ 0.55 µg/mL) | 1 µM (≈ 0.529 µg/mL) | < 10% | 1.61 µM (≈ 0.851 µg/mL) | 1.79 µM (≈ 0.946 µg/mL) | 0.84 µM (≈ 0.444 µg/mL) | 0.94 µM (≈ 0.497 µg/mL) | 60.2% |
| O=C(NCc1ccccc1)C(c1ccc(O)c(O)c1)N(C(=O)Cc1ccccc1)C1CCCCC1 (stereo not drawn) [Compound 5d, N-benzyl-2-(N-cyclohexyl-2-phenylacetamido)-2-(3,4-dihydroxyphenyl)acetamide] | 0.74 µM (≈ 0.35 µg/mL) | 0.68 µM (≈ 0.321 µg/mL) | 0.68 µM (≈ 0.321 µg/mL) | 0.76 µM (≈ 0.359 µg/mL) | 0.74 µM (≈ 0.35 µg/mL) | 0.36 µM (≈ 0.17 µg/mL) | 1.29 µM (≈ 0.61 µg/mL) | 1.45 µM (≈ 0.685 µg/mL) | 0.63 µM (≈ 0.298 µg/mL) | 0.74 µM (≈ 0.35 µg/mL) | 1.07 µM (≈ 0.506 µg/mL) | 0.68 µM (≈ 0.321 µg/mL) | > 10% | 0.92 µM (≈ 0.435 µg/mL) | 1.06 µM (≈ 0.501 µg/mL) | 0.74 µM (≈ 0.35 µg/mL) | 0.75 µM (≈ 0.354 µg/mL) |  |
| CCCCN(C(C)=O)C(C(=O)NCc1ccc(OC)cc1)c1ccc(O)c(O)c1 (stereo not drawn) [Compound 5q, 2-(N-butylacetamido)-2-(3,4-dihydroxyphenyl)-N-(4-methoxybenzyl)acetamide] | 0.91 µM (≈ 0.364 µg/mL) | 0.81 µM (≈ 0.324 µg/mL) | 0.84 µM (≈ 0.336 µg/mL) | 0.85 µM (≈ 0.34 µg/mL) | 0.79 µM (≈ 0.316 µg/mL) | 0.43 µM (≈ 0.172 µg/mL) | 1.58 µM (≈ 0.633 µg/mL) | 1.49 µM (≈ 0.597 µg/mL) | 0.83 µM (≈ 0.332 µg/mL) | 0.87 µM (≈ 0.348 µg/mL) | 1.44 µM (≈ 0.577 µg/mL) | 0.82 µM (≈ 0.328 µg/mL) | < 10% | 1.13 µM (≈ 0.453 µg/mL) | 1.52 µM (≈ 0.609 µg/mL) | 0.81 µM (≈ 0.324 µg/mL) | 0.85 µM (≈ 0.34 µg/mL) | 86.9% |
| CCCCN(C(C)=O)C(C(=O)NCc1ccc(F)cc1)c1ccc(O)c(O)c1 (stereo not drawn) [Compound 5r, 2-(N-butylacetamido)-2-(3,4-dihydroxyphenyl)-N-(4-fluorobenzyl)acetamide] | 1.54 µM (≈ 0.598 µg/mL) | 1.51 µM (≈ 0.587 µg/mL) | 1.67 µM (≈ 0.649 µg/mL) | 1.5 µM (≈ 0.583 µg/mL) | 0.94 µM (≈ 0.365 µg/mL) | 0.74 µM (≈ 0.287 µg/mL) | 3.5 µM (≈ 1.36 µg/mL) | 3.13 µM (≈ 1.22 µg/mL) | 1.64 µM (≈ 0.637 µg/mL) | 1.49 µM (≈ 0.579 µg/mL) | 1.51 µM (≈ 0.587 µg/mL) | 1.5 µM (≈ 0.583 µg/mL) | < 10% | 2.56 µM (≈ 0.994 µg/mL) | 3.14 µM (≈ 1.22 µg/mL) | 1.26 µM (≈ 0.489 µg/mL) | 1.31 µM (≈ 0.509 µg/mL) |  |
